This is an account of results in patent publication US20240279233A1, “MACROCYCLIC TAK1 INHIBITORS” (Aqilion AB, priority 2021, published 2024).

Molecules are shown by their SMILES. Converted amounts (≈) assume the structure as drawn.

A short description of data set [1]: Solubility assay in phosphate buffer. The conditions noted are these: phosphate buffer, pH 7.4, aqueous buffer, kinetic from dmso stock, Solubility (μM), phosphate buffer 100 mM, pH 7.4, room temperature, 20-24 h, LC-UV.
Experimental: The aqueous solubility of selected example compounds was determined as follows; 6 μL of DMSO stock solution of the selected example was added to 594 μL phosphate buffer (100 mM, pH 7.4). The resulting mixture was equilibrated over night (20-24 h, Alligator Shaker, room temperature). The mixture was then filtered (Millex LH 0.45 μm) and the concentration/solubility was determined by LC-UV quantification.
The target in data set [2] is human recombinant TAK1-TAB1 Kinase (TAK1 (1-303) and TAB1 (437-end)) (Homo sapiens (Human), UniProt O43318). The data set can be described thus: TAK1 biochemical ADP-Glo kinase assay. The conditions noted are these: 10 μM ATP, MBP substrate; read-out: TAK1 Mean IC50 (nM) @ 10 μM ATP. Put shortly:
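Inhibition of human recombinant TAK1-TAB1 kinase was measured with a Promega ADP-Glo luminescence assay in 384-well plates. Compounds in 5% DMSO were pre-incubated 10 min with 2 μl TAK1-TAB1 (7.5 ng/μl) in buffer of Tris pH 7.5, MgCl2, DTT and BSA. MBP substrate and ATP were then added for 1 hour at room temperature. ADP-Glo reagent and kinase detection substrate followed, luminescence was read on an Envision, and IC50 came from non-linear regression.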

human recombinant TAK1-TAB1 Kinase (TAK1 (1-303) and TAB1 (437-end)), sequence (O43318 other isoform, or with tags, fused parts or gaps): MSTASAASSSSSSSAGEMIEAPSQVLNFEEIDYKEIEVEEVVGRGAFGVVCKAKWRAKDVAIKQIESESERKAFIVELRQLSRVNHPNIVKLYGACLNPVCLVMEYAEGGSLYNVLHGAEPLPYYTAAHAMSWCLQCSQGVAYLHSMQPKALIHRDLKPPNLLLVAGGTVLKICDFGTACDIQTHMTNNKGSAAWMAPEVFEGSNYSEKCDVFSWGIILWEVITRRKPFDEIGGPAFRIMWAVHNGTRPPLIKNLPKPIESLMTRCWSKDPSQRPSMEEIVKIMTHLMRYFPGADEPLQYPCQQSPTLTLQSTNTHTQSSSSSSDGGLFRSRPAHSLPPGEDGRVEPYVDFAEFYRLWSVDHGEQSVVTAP

Compound `CC1CCCCNC(=O)c2cccc(c2)C(=O)/N=C2\Nc3cccc(-c4nccn4C)c3N21` (single isomer, unassigned) [Example 136, (E)-11-methyl-1^7-(1-methyl-1H-imidazol-2-yl)-1^2,1^3-dihydro-1^1H-2,6-diaza-1(2,1)-benzo[d]imidazola-4(1,3)-benzenacycloundecaphane-3,5-dione] returned a solubility in data set [1] of 11 µM (≈ 4.87 µg/mL). In addition, the IC50 in data set [2] came to 4 nM.

Consider `O=C1NCCCCCCn2c(nc3ccccc32)NC(=O)c2cccc1c2` [Example 1, 1^1H-2,6-diaza-1(2,1)-benzo[d]imidazola-4(1,3)-benzenacyclododecaphane-3,5-dione], for which the solubility in data set [1] was determined as 1.2 µM (≈ 0.435 µg/mL). Further, the IC50 in data set [2] was determined as 27 nM.

Turning to `CC1CCCCNC(=O)c2cccc(c2)C(=O)Nc2nc3cccc(C(=O)N4CCN(C)CC4)c3n21` (stereo not shown) [Example 8, 11-methyl-1^7-(4-methylpiperazine-1-carbonyl)-1^1H-2,6-diaza-1(2,1)-benzo[d]imidazola-4(1,3)-benzenacycloundecaphane-3,5-dione], the solubility in data set [1] is 92.7 µM (≈ 45.3 µg/mL). For the same compound, the concentration for half-maximal inhibition (IC50) in data set [2] amounted to 5 nM.

Compound `CN1CCN(C(=O)c2cccc3nc4n(c23)CCCCCNC(=O)c2cccc(c2)C(=O)N4)CC1` [Example 10, 1^7-(4-methylpiperazine-1-carbonyl)-1^1H-2,6-diaza-1(2,1)-benzo[d]imidazola-4(1,3)-benzenacycloundecaphane-3,5-dione] gave a solubility in data set [1] of 28 µM (≈ 13.3 µg/mL). Further, the IC50 in data set [2] is 11 nM.

In turn, `CN1CCN(C(=O)c2ccc3c(c2)nc2n3CCCCCNC(=O)c3cccc(c3)C(=O)N2)CC1` [Example 11, 1^5-(4-methylpiperazine-1-carbonyl)-1^1H-2,6-diaza-1(2,1)-benzo[d]imidazola-4(1,3)-benzenacycloundecaphane-3,5-dione] yielded a solubility in data set [1] of 4.8 µM (≈ 2.28 µg/mL). Besides, the IC50 in data set [2] was 1 nM.

The compound `O=C1NCCCCCn2c(nc3cc(C(=O)N4CCN(C5COC5)CC4)ccc32)NC(=O)c2cccc1c2` [Example 12, 1^5-(4-(oxetan-3-yl)piperazine-1-carbonyl)-1^1H-2,6-diaza-1(2,1)-benzo[d]imidazola-4(1,3)-benzenacycloundecaphane-3,5-dione] showed a solubility in data set [1] of 31.1 µM (≈ 16.1 µg/mL). Besides, the IC50 in data set [2] is 1 nM.

In data set [1], `CC(C)(C)OC(=O)N1CCN(C(=O)c2ccc3c(c2)nc2n3CCCCCNC(=O)c3cccc(c3)C(=O)N2)CC1` [Example 13, tert-butyl 4-(3,5-dioxo-1^1H-2,6-diaza-1(2,1)-benzo[d]imidazola-4(1,3)-benzenacycloundecaphane-1^5-carbonyl)piperazine-1-carboxylate] came in with a solubility of 0.2 µM (≈ 0.112 µg/mL). Further, the IC50 in data set [2] is 1 nM.

Compound `CC(C)(C)OC(=O)N1CCN(C(=O)c2cccc3nc4n(c23)CCCCCNC(=O)c2cccc(c2)C(=O)N4)CC1` [Example 14, tert-butyl 4-(3,5-dioxo-1^1H-2,6-diaza-1(2,1)-benzo[d]imidazola-4(1,3)-benzenacycloundecaphane-1^7-carbonyl)piperazine-1-carboxylate] yielded a solubility in data set [1] of 0.3 µM (≈ 0.168 µg/mL). Also, the IC50 in data set [2] is 11 nM.

Consider `CC1CCCCNC(=O)c2cccc(c2)C(=O)Nc2nc3cccc(C(=O)N4CCNCC4)c3n21` (stereo not shown) [Example 15, 11-methyl-1^7-(piperazine-1-carbonyl)-1^1H-2,6-diaza-1(2,1)-benzo[d]imidazola-4(1,3)-benzenacycloundecaphane-3,5-dione], for which, in data set [1], the solubility was 90.1 µM (≈ 42.8 µg/mL). The IC50 in data set [2] stood at 5 nM.

For `O=C1NCCCCCn2c(nc3cc(C(=O)N4CCNCC4)ccc32)NC(=O)c2cccc1c2` [Example 16, 1^5-(piperazine-1-carbonyl)-1^1H-2,6-diaza-1(2,1)-benzo[d]imidazola-4(1,3)-benzenacycloundecaphane-3,5-dione], the solubility in data set [1] amounted to 78.8 µM (≈ 36.3 µg/mL). For the same compound, the 50% inhibitory concentration (IC50) in data set [2] amounted to 3 nM.

In data set [1], `O=C1NCCCCCn2c(nc3cccc(C(=O)N4CCNCC4)c32)NC(=O)c2cccc1c2` [Example 17, 1^7-(piperazine-1-carbonyl)-1^1H-2,6-diaza-1(2,1)-benzo[d]imidazola-4(1,3)-benzenacycloundecaphane-3,5-dione] registered a solubility of 93.6 µM (≈ 43.1 µg/mL). Also, the IC50 in data set [2] is 4 nM.
